Assay results published in PMC11976424 (Journal of Advanced Research, 2024).

Tests used:
[1] = biological target: AMPKα2β1γ1 (AMP-activated protein kinase) (Homo sapiens, UniProt P54619+P54646+Q9Y478); test: SPR; assay type: binding
[2] = biological target: AMPKα1β1γ1 (AMP-activated protein kinase) (Homo sapiens, UniProt Q13131); test: SPR; assay type: binding
Sequence of AMPKα1β1γ1 (AMP-activated protein kinase) (Q13131 whole entry): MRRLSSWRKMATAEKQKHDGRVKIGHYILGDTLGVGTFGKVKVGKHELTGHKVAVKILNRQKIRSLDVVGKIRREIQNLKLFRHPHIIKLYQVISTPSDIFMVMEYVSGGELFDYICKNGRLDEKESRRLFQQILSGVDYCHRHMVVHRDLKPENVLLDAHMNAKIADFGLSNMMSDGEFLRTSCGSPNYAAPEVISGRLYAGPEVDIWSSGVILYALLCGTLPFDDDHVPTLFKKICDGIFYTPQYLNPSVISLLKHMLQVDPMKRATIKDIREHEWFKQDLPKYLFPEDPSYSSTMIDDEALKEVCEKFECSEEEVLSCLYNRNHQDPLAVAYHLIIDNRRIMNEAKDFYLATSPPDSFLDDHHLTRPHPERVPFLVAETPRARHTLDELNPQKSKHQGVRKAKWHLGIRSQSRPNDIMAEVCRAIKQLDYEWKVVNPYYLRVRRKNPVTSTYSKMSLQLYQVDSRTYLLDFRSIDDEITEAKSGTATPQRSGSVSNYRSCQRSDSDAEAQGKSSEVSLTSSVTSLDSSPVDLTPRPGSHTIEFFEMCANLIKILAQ
Sequence of AMPKα1β1γ1 (AMP-activated protein kinase) (Q9Y478 2-270 partner): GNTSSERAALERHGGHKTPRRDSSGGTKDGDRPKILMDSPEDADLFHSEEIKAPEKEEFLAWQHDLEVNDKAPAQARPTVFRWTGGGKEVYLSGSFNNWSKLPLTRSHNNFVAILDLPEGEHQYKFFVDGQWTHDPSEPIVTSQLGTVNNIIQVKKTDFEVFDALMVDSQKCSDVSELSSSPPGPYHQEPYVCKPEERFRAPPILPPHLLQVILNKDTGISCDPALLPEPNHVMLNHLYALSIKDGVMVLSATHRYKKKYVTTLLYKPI
Sequence of AMPKα1β1γ1 (AMP-activated protein kinase) (P54619 whole entry partner): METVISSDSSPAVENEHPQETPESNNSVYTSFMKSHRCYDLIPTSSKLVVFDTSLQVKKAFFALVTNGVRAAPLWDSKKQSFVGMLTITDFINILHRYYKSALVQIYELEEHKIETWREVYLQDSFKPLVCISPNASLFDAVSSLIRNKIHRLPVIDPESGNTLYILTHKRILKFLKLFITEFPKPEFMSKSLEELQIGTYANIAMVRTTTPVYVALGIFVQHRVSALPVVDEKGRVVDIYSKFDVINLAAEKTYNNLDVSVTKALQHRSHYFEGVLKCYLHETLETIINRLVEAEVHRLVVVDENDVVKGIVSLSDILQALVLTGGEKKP

Sequence of AMPKα2β1γ1 (AMP-activated protein kinase) (P54646 whole entry): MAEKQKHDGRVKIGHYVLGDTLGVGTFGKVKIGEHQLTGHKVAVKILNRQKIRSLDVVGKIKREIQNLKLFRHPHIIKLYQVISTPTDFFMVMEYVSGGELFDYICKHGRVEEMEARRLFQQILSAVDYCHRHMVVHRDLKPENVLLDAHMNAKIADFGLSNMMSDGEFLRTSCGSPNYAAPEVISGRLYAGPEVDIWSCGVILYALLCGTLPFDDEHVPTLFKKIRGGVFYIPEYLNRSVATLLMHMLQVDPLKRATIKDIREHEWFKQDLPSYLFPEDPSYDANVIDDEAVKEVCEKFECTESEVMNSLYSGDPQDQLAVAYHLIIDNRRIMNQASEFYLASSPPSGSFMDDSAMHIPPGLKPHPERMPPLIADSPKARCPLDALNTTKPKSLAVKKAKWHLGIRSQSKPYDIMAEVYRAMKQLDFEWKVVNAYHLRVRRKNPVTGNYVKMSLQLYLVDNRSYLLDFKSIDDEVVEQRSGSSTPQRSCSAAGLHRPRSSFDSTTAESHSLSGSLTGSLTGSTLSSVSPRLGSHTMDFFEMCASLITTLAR
Sequence of AMPKα2β1γ1 (AMP-activated protein kinase) (Q9Y478 2-270 partner): as the sequence (Q9Y478 2-270 partner) above
Sequence of AMPKα2β1γ1 (AMP-activated protein kinase) (P54619 whole entry partner): as the sequence (P54619 whole entry partner) above

- Kd [1]: 4.67 µM
- Kd [2]: 3.77 µM
Structure (SMILES): OC[C@H]1O[C@@H](Oc2c(O)cc(O)cc2/C=C/c2ccc(O)cc2)[C@H](O)[C@@H](O)[C@@H]1O [TSG, 2,3,5,4′-tetrahydroxystilbene-2-O-β-D-glucoside]
